Source: US20220241409A1, “WATER SOLUBLE ADJUVANT AND COMPOSITION CONTAINING SAME” (Sumitomo Dainippon Pharma Co., Ltd., priority 2019, published 2022)

Legend:
[1] = test system: human peripheral blood mononuclear cell; assay: Activation of immune cells, human PBMC cytokine/chemokine production (Test 3); format: cell-based; settings: 200 nmol/L, one day, PBMCs from two donors, compared with only DMSO
Method: Cryopreserved peripheral blood mononuclear cells (PBMCs) of adult (C.T.L) were reconstituted, suspended in a culture medium which comprises AIM V medium (Life Technologies) supplemented with 10% human serum (biowest) and 1% MEM Non-Essential Amino Acids Solution (100×) (Life Technologies), and seeded on a U-bottom 96 well plate at 4×10^5 cells/well. The compound of the present invention was added in the presence of 0.1% (v/v) DMSO to the wells at a final concentration of 200 nmol/L. The plate was incubated at 37° C. under an atmosphere of 5% CO2. One day after the incubation, the culture supernatant was collected. The concentration of cytokine and chemokine (GM-CSF, IFNα2, IFNγ, IL-12p40, IL-1p, IL-6, IP-10, and TNFα) which were included in each culture supernatant was measured with Milliplex Human Cytokine/Chemokine Magnetic Bead Panel kit (Millipore) and Luminex system (Luminex) in accordance with the manufacturer's protocol.
The results of the test wherein PBMCs derived from two different donors were used were shown in FIG. 1-A to FIG. 1-I. The white bar indicates the mean number of the concentration of cytokine and chemokine in the culture supernatant from three wells to which only DMSO was added, and the black bar indicates the mean number of the concentration of cytokine and chemokine in the culture supernatant from three wells to which the present compound was added. […]

[2] = test system: HLA-A*02:01 transgenic mouse; assay: In vivo adjuvant activity, CTL induction with vaccine b (Montanide ISA 51 VG), IFNγ ELISPOT (Test 8); settings: compound (32.5 ng or 325 ng per body) added to vaccine b versus no compound; twice, one week interval
Method: The in vivo adjuvant activity of the compounds prepared in Examples 2 and 3 was evaluated in the following procedure. To a cocktail vaccine comprising Compound of formula 4 prepared in Reference example 9 and Peptide SEQ ID No. 3 prepared in Reference example 3 with Montanide ISA51 VG (hereinafter, referred to as “vaccine b”) was added the compound prepared in Example 2 or 3 to prepare each vaccine. The vaccine was administered to a HLA-A*02:01 transgenic mouse, and the adjuvant activity of each vaccine was evaluated by the method of testing antigen-specific CTL induction.
Specifically, Compound of formula 4 and Peptide SEQ ID No. 3 were dissolved in DMSO, and then diluted with water for injection to concentrations of Compound of formula 4 of 3 mg/mL and Peptide SEQ ID No. 3 of 2.25 mg/mL. The diluted peptide solution was mixed and emulsified with an equal volume of Montanide ISA 51 VG (Seppic) to prepare vaccine b. Cocktail vaccine b was injected to mice intradermally at the tail base area in an amount for administering 300 μg of Compound of formula 4 per body and 225 μg of Peptide SEQ ID No. 3 per body. Or, in the step of preparing vaccine b, the compound prepared in Example 3 was added to the diluted peptide solution to prepare a vaccine, and the prepared vaccine was injected to mice intradermally at the tail base area in an amount for administering 300 μg of Compound of formula 4 per body, 225 μg of Peptide SEQ ID No. 3 per body, and 32.5 ng or 325 ng of the compound prepared in Example 3 per body. Or, in the step of preparing vaccine b, the compound prepared in Example 2 was added to the diluted peptide solution to prepare a vaccine, and the prepared vaccine was injected to mice intradermally at the tail base area in an amount for administering 300 μg of Compound of formula 4 per body, 225 μg of Peptide SEQ ID No. 3 per body, and 32.5 ng or 325 ng of the compound prepared in Example 2 per body. The administrations were done twice, which had one week interval. One week after the final administration, the mice were sacrificed with CO2 gas. Splenocytes were harvested from spleens removed from the mice. Like Test 6, Peptide (SEQ ID No. 1 or SEQ ID No. 5) was added to the splenocyte-containing ELISPOT plate, and the plate was incubated overnight at 37° C. under an atmosphere of 5% CO2 to re-stimulate the peptide in vitro. Then, after removal of the supernatant from the wells, stained spots on the ELISPOT plate were counted.

Row | Structure (SMILES) | concentration of cytokine and chemokine (GM-CSF, IFNα2, IFNγ, IL-12p40, IL-1β, IL-6, IP-10, TNFα) in culture supernatant [1] | CTL counts responsive to Peptide of SEQ ID No. 1 [2] | CTL counts responsive to Peptide of SEQ ID No. 5 [2]
1 | CCCCOc1nc(N)c2[nH]c(=O)n(Cc3ccc(CN(C)CCOCCOCCOCCOCCO)cc3)c2n1 [Example 3, 6-amino-2-butoxy-9-{[4-(16-hydroxy-2-methyl-5,8,11,14-tetraoxa-2-azahexadecan-1-yl)phenyl]methyl}-7,9-dihydro-8H-purin-8-one] | higher | more | more
2 | CCCCOc1nc(N)c2[nH]c(=O)n(Cc3ccc(CN(C)CCOCCOCCOCCOCCO)nc3)c2n1 [Example 2, 6-amino-2-butoxy-9-{[6-(16-hydroxy-2-methyl-5,8,11,14-tetraoxa-2-azahexadecan-1-yl)pyridin-3-yl]methyl}-7,9-dihydro-8H-purin-8-one-trifluoroacetate] | higher | more | more
